Reference: ChEMBL document CHEMBL5380862, “Unsymmetrical Phosphodiesters as GPR84 Antagonists with High Blood Exposure for the Treatment of Lung Inflammation” (J Med Chem, 2023)
Active and inactive are the calls of the source. The calls are words filed in the database; no cut-off is given here.

Experiments:
[1] = Oral bioavailability in ICR mouse at 5 mg/kg administered as single dose; type: ADME, organism-based; details: in vivo
[2] = AUClast in ICR mouse at 2 mg/kg, iv administered as single dose; type: ADME, organism-based; parameters: dose 2 mg/kg, route iv; details: in vivo
[3] = Drug distribution in mouse plasma at 5 mg/kg, po administered as single dose and measured after 0.5 hrs by LC-MS analysis; type: ADME, organism-based
[4] = Drug distribution in mouse plasma at 5 mg/kg, po administered as single dose and measured after 2 hrs by LC-MS analysis; type: ADME, organism-based
[5] = Drug distribution in mouse plasma at 5 mg/kg, po administered as single dose and measured after 8 hrs by LC-MS analysis; type: ADME, organism-based; details: read-out: Drug uptake
[6] = Drug distribution in mouse brain at 5 mg/kg, po administered as single dose and measured after 0.5 hrs by LC-MS analysis; type: ADME, organism-based; details: read-out: Drug uptake
[7] = Drug distribution in mouse brain at 5 mg/kg, po administered as single dose and measured after 2 hrs by LC-MS analysis; type: ADME, organism-based; details: read-out: Drug uptake
[8] = Drug distribution in mouse lung at 5 mg/kg, po administered as single dose and measured after 8 hrs by LC-MS analysis; type: ADME, organism-based; details: read-out: Drug uptake
[9] = Drug distribution in mouse liver at 5 mg/kg, po administered as single dose and measured after 2 hrs by LC-MS analysis; type: ADME, organism-based; details: read-out: Drug uptake
[10] = tested on: Neutrophil; test: Inhibition of cell migration in 3-hydroxydodecanoic acid-stimulated mouse CD11bpositive Ly6Gpositive neutrophils at 0.01 to 1 uM incubated for 1.5 hrs by flow cytometric analysis; type: functional, cell-based; details: dose 0.01-1 µM
[11] = tested on: Neutrophil; test: Inhibition of cell migration in 6-n-[…]-stimulated mouse CD11bpositive Ly6Gpositive neutrophils at 0.01 to 1 uM incubated for 1.5 hrs by flow cytometric analysis; type: functional, cell-based; details: dose 0.01-1 µM
[12] = target: G-protein coupled receptor 84 (Mus musculus) (UniProt Q8CIM5); test: Antagonist activity at mouse GPR84 expressed in HEK293 cells co-expressing Galpha16 assessed as inhibition of 6-OAU induced calcium response incubated for 10 mins by calcium mobilization assay; type: functional, cell-based; details: filed as antagonist
Sequence of G-protein coupled receptor 84 (Mus musculus) (Q8CIM5 whole entry): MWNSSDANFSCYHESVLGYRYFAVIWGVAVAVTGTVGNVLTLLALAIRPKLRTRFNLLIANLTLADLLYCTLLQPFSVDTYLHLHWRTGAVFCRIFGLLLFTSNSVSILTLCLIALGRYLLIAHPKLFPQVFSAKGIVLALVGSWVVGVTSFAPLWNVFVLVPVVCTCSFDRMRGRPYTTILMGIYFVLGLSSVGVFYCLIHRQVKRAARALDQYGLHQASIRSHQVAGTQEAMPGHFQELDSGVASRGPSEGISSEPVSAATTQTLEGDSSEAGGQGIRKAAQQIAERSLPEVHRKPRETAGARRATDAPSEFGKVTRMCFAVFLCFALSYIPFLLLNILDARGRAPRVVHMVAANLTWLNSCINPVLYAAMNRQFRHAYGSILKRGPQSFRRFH

[13] = target: Free fatty acid receptor 1 (Homo sapiens) (UniProt O14842); test: Antagonist activity at GPR40 (unknown origin) expressed in HEK293 cells co-expressing Galpha16 assessed as inhibition of TAK-875 induced calcium response upto 100 uM incubated for 10 mins by calcium mobilization assay; type: functional, cell-based
Sequence of Free fatty acid receptor 1 (Homo sapiens) (O14842 whole entry): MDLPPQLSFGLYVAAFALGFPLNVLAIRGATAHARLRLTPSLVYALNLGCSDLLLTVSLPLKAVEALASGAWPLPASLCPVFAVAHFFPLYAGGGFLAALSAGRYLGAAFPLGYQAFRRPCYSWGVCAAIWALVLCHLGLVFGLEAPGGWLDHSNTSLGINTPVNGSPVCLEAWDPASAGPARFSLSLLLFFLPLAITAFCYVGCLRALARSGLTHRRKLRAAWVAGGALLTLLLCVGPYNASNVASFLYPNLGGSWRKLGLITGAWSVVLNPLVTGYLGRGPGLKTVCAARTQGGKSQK

[14] = target: T1, Free fatty acid receptor 3 (Homo sapiens) (UniProt O14843); test: Antagonist activity at GPR41 (unknown origin) expressed in HEK293 cells co-expressing Galpha16 assessed as inhibition of sodium butyrate induced calcium response upto 100 uM incubated for 10 mins by calcium mobilization assay; type: functional, cell-based
T1 sequence (whole entry): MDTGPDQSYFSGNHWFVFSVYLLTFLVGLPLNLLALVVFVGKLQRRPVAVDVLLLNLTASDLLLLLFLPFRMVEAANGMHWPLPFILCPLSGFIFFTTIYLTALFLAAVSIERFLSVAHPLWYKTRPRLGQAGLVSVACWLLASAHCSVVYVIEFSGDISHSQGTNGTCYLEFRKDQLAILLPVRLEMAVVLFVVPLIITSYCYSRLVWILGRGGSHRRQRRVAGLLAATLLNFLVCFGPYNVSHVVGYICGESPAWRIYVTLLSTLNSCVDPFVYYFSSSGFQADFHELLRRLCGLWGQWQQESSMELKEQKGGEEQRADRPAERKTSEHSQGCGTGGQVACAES

[15] = target: T2, Glucose-dependent insulinotropic receptor (Homo sapiens) (UniProt Q8TDV5); test: Antagonist activity at GPR119 (unknown origin) expressed in HEK293 cells assessed as inhibition of AR231453 induced […] upto 100 uM pre-incubated for 10 mins followed by AR231453 addition and measured after 15 mins by cAMP detection assay; type: functional, cell-based; details: time 25.0 min
T2 sequence (whole entry): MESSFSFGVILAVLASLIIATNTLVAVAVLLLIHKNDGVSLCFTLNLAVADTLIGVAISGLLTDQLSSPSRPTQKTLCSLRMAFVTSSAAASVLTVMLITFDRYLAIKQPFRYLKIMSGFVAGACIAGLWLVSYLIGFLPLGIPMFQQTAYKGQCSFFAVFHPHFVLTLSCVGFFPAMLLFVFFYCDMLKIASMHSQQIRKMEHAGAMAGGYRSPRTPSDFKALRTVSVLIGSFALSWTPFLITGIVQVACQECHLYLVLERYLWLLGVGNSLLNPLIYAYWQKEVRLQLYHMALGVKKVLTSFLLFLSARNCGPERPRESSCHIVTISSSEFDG

[16] = target: T3, Free fatty acid receptor 4 (Homo sapiens) (UniProt Q5NUL3); test: Antagonist activity at GPR120 (unknown origin) expressed in HEK293 cells co-expressing Galpha16 assessed as inhibition of TUG-981 induced calcium response upto 100 uM incubated for 10 mins by calcium mobilization assay; type: functional, cell-based
T3 sequence (whole entry): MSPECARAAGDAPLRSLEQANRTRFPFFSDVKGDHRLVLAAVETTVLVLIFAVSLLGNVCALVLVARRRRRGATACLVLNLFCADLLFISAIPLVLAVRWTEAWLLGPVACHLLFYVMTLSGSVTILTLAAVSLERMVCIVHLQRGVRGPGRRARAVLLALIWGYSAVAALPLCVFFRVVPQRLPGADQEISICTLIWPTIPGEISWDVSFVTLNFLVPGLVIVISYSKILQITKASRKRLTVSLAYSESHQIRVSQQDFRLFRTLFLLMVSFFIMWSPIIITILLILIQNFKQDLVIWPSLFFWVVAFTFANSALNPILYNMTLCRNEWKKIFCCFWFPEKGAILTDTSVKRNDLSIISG

[17] = target: T4, Alpha-1A adrenergic receptor (Homo sapiens) (UniProt P35348); test: Antagonist activity at ARalpha1A (unknown origin) expressed in HEK293 cells co-expressing Galpha16 assessed as inhibition of Phenylephrine induced calcium response upto 100 uM incubated for 10 mins by calcium mobilization assay; type: functional, cell-based
T4 sequence (whole entry): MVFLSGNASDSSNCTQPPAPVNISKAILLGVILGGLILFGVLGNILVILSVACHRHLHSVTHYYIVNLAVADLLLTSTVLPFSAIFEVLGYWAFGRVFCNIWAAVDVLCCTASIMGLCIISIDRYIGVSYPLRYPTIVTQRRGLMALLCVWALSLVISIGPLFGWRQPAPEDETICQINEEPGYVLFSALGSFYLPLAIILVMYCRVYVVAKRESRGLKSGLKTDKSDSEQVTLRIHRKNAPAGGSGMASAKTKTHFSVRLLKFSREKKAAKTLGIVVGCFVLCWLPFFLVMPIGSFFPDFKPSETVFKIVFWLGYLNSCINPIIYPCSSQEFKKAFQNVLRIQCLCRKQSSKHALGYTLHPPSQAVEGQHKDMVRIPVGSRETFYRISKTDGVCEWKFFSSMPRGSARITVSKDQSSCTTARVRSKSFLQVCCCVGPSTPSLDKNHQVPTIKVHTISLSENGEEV

[18] = target: Beta-1 adrenergic receptor (Homo sapiens) (UniProt P08588); test: Antagonist activity at ARbeta1 (unknown origin) expressed in HEK293 cells co-expressing Galpha16 assessed as inhibition of Isoproterenol induced calcium response upto 100 uM incubated for 10 mins by calcium mobilization assay; type: functional, cell-based
Sequence of Beta-1 adrenergic receptor (Homo sapiens) (P08588 whole entry, looked up): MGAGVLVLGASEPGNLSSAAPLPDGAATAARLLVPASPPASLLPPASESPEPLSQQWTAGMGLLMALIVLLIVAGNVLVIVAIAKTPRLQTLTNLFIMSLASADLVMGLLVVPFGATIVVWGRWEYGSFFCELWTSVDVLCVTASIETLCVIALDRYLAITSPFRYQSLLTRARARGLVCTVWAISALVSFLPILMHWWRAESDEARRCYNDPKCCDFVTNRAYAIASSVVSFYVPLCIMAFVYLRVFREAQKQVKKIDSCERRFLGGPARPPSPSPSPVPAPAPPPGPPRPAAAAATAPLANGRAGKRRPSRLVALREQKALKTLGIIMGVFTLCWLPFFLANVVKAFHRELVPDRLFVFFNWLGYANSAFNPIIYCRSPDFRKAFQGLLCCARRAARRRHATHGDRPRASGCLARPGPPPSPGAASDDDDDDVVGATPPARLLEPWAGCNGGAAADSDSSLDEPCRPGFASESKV

bioavailability [1]: 12%
AUC(0-t) [2]: 1680 ng·h/mL
concentration at 0.5 h [3]: 135 ng/mL
concentration at 2 h [4]: 393 ng/mL
concentration at 8 h [5]: 50.7 ng/mL
concentration at 0.5 h [6]: 6.8 ng/g
concentration at 2 h [7]: 6.3 ng/g
concentration at 8 h [8]: 26.1 ng/g
concentration at 2 h [9]: 1960 ng/g
inhibition [12]: Active
inhibition [13]: inactive
inhibition [14]: inactive
inhibition [15]: inactive
inhibition [16]: inactive
inhibition [17]: inactive
inhibition [18]: inactive
Compound: O=P([O-])(OC1=Cc2c(Cl)cccc2Sc2ccccc21)OC1=Cc2c(Cl)cccc2Sc2ccccc21.[Na+]
inhibition [10]: Active
inhibition [11]: Active
